Data on 3 molecules can be found in patent US11572399B2, “Long-acting GIP peptide analogues” (University of Copenhagen, priority 2017, dated 2023).

For experiment [1], the target named is T1, human GIP receptor (Homo sapiens, UniProt P48546).
T1 construct: host or cells: COS-7, transient transfection (calcium phosphate), cDNA in pCMV-Script
T1 sequence (P48546 22-466): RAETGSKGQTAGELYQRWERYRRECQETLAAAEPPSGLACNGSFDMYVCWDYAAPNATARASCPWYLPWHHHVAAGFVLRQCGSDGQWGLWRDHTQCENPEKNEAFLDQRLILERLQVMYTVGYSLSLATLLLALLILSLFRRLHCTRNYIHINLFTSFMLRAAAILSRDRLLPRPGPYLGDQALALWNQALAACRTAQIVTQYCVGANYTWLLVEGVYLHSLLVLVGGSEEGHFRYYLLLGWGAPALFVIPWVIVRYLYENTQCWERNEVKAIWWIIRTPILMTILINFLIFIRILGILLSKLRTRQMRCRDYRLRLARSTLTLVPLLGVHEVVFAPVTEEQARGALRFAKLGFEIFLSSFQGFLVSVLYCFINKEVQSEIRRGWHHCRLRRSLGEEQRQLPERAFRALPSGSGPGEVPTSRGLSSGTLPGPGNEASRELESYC
As to the kind of experiment: cAMP accumulation assay, agonism (ligand alone). To be noted: Table 1; for Emax: COS-7, intrinsic cAMP activity, COS-7 cells. Type of experiment: cell-based. For orientation: cAMP levels reflect the balance of adenylyl cyclase and phosphodiesterase activity.

Experiment [2] deals with T1, human GIP receptor. Briefly: 125I-human GIP competition binding assay, in the presence and absence of 2% HSA.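 On all read-outs here: nonspecific binding taken as radioligand bound to untransfected cells, IC50 obtained from nonlinear regression fits.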 To be noted: for Fold change HSA (2%)/Casein (0.1%): IC50 (plus HSA)/IC50 (minus HSA); for Binding (+/−HSA) Fold: fold change +HSA/−HSA.
Experiment [3] deals with T1, human GIP receptor. As to the kind of experiment: cAMP accumulation assay, antagonism of a GIP-mediated cAMP response (50-80% of max). Type of experiment: cell-based. The note with it: for Fold change of IC50 versus GIP(5-30)NH2: fold change of IC50 from GIP(5-30)NH2. Here is the method:
The day after, the cells were washed twice with Hepes buffered saline (HBS) buffer and incubated with HBS and 1 mM 3-isobutyl-1-methylxanthine (IBMX) for 30 min at 37° C. […] The HitHunter™ cAMP XS assay (DiscoveRx) was carried out according to the manufacturer's instructions.

SMILES strings stand for the structures. Where two headings read alike, the source gives them in different places. Peptide text beside a SMILES is read from it. * marks the point of attachment. C16 diacid = O=C(O)CCCCCCCCCCCCCCC(=O)*

The term Emax denotes the greatest response seen or fitted, relative to the assay's reference. `CC[C@H](C)[C@H](NC(=O)[C@H](CO)NC(=O)[C@H](Cc1ccc(O)cc1)NC(=O)[C@H](CC(=O)O)NC(=O)[C@H](CO)NC(=O)[C@@H](NC(=O)[C@H](Cc1ccccc1)NC(=O)[C@@H](N)[C@@H](C)O)[C@@H](C)CC)C(=O)N[C@@H](C)C(=O)N[C@@H](CCSC)C(=O)N[C@@H](CC(=O)O)C(=O)N[C@@H](CCCCN)C(=O)N[C@H](C(=O)N[C@@H](Cc1c[nH]cn1)C(=O)N[C@@H](CCC(N)=O)C(=O)N[C@@H](CCC(N)=O)C(=O)N[C@@H](CC(=O)O)C(=O)N[C@@H](Cc1ccccc1)C(=O)N[C@@H](CCCCNC(=O)CCCCCCCCCCCCCCC(=O)O)C(=O)N[C@@H](CC(N)=O)C(=O)N[C@@H](Cc1c[nH]c2ccccc12)C(=O)N[C@@H](CC(C)C)C(=O)N[C@@H](CC(C)C)C(=O)N[C@@H](C)C(=O)N[C@@H](CCC(N)=O)C(=O)N[C@@H](CCCCN)C(N)=O)[C@@H](C)CC` [AT183, [hGIP(5-30)NH2[V23K]-C16diacid/23]] (H-TFISDYSIAMDKIHQQDFK(C16 diacid)NWLLAQK-NH2; N-terminus assumed): on human GIP receptor [1], the maximum response (Emax) is 0%. For the same molecule, at human GIP receptor [2], the “Fold change HSA (2%)/Casein (0.1%)” value was 1.8 and the “Binding (+/−HSA) Fold” value turned out to be 4.4. The “Fold change of IC50 versus GIP(5-30)NH2” value at human GIP receptor [3] was determined as 55.0.

In general, Ki refers to a measure of affinity in units of concentration, obtained from inhibition or displacement. `CC[C@H](C)[C@H](NC(=O)[C@H](CO)NC(=O)[C@H](Cc1ccc(O)cc1)NC(=O)[C@H](CC(=O)O)NC(=O)[C@H](CO)NC(=O)[C@@H](NC(=O)[C@H](Cc1ccccc1)NC(=O)[C@@H](N)[C@@H](C)O)[C@@H](C)CC)C(=O)N[C@@H](C)C(=O)N[C@@H](CCSC)C(=O)N[C@@H](CC(=O)O)C(=O)N[C@@H](CCCCN)C(=O)N[C@H](C(=O)N[C@@H](Cc1c[nH]cn1)C(=O)N[C@@H](CCC(N)=O)C(=O)N[C@@H](CCC(N)=O)C(=O)N[C@@H](CC(=O)O)C(=O)N[C@@H](Cc1ccccc1)C(=O)N[C@H](C(=O)N[C@@H](CCCCNC(=O)CCCCCCCCCCCCCCC(=O)O)C(=O)N[C@@H](Cc1c[nH]c2ccccc12)C(=O)N[C@@H](CC(C)C)C(=O)N[C@@H](CC(C)C)C(=O)N[C@@H](C)C(=O)N[C@@H](CCC(N)=O)C(=O)N[C@@H](CCCCN)C(N)=O)C(C)C)[C@@H](C)CC` [AT184, [hGIP(5-30)NH2[N24K]-C16diacid/24]] (H-TFISDYSIAMDKIHQQDFVK(C16 diacid)WLLAQK-NH2; N-terminus assumed) registered an Emax at human GIP receptor [1] of 0%. At human GIP receptor [2], the “Fold change HSA (2%)/Casein (0.1%)” value was found to be 1.6 and the “Binding (+/−HSA) Fold” value came to 3.9. Further, the Ki on human GIP receptor [2] (absence of HSA) was 224 nM. Moreover, on human GIP receptor [3], the “Fold change of IC50 versus GIP(5-30)NH2” value was 3.9.

As a reminder, the EC50 is the concentration at which the effect is half-maximal. For orientation: IC50 means the concentration at which inhibition is half-maximal. Molecule `CC[C@H](C)[C@H](NC(=O)[C@H](CO)NC(=O)[C@H](Cc1ccc(O)cc1)NC(=O)[C@H](CC(=O)O)NC(=O)[C@H](CO)NC(=O)[C@@H](NC(=O)[C@H](Cc1ccccc1)NC(=O)[C@@H](N)[C@@H](C)O)[C@@H](C)CC)C(=O)N[C@@H](C)C(=O)N[C@@H](CCSC)C(=O)N[C@@H](CC(=O)O)C(=O)N[C@@H](CCCCN)C(=O)N[C@H](C(=O)N[C@@H](Cc1c[nH]cn1)C(=O)N[C@@H](CCC(N)=O)C(=O)N[C@@H](CCC(N)=O)C(=O)N[C@@H](CC(=O)O)C(=O)N[C@@H](Cc1ccccc1)C(=O)N[C@H](C(=O)N[C@@H](CC(N)=O)C(=O)N[C@@H](CCCCNC(=O)CCCCCCCCCCCCCCC(=O)O)C(=O)N[C@@H](CC(C)C)C(=O)N[C@@H](CC(C)C)C(=O)N[C@@H](C)C(=O)N[C@@H](CCC(N)=O)C(=O)N[C@@H](CCCCN)C(N)=O)C(C)C)[C@@H](C)CC` [AT185, [hGIP(5-30)NH2[W25K]-C16diacid/25]] (H-TFISDYSIAMDKIHQQDFVNK(C16 diacid)LLAQK-NH2; N-terminus assumed) registered an Emax at human GIP receptor [1] of 18%. The EC50 at human GIP receptor [1] (given as log EC50 (negative sign), read-out: cAMP agonism EC50 (log) (converted)) is 0.1 µM. In addition, at human GIP receptor [2], the “Fold change HSA (2%)/Casein (0.1%)” value was 4.7 and the “Binding (+/−HSA) Fold” value turned out to be 5.0. Besides, the Ki at human GIP receptor [2] (presence of 2% HSA) came out at 337 nM. Further, the IC50 on human GIP receptor [3] (antagonism of GIP-mediated cAMP response, COS-7 cells, read-out: cAMP accumulation IC50) worked out at 66.1 nM. For the same molecule, the “Fold change of IC50 versus GIP(5-30)NH2” value at human GIP receptor [3] came to 2.4. The concentration for half-maximal inhibition (IC50) on human GIP receptor [3] (transiently transfected COS-7 cells, Table 1 and text, read-out: cAMP antagonism nM (IC50, antagonistic potency)) came to 44 nM.
